Legend:
[1] = tested on: CHO cell line producing adalimumab; test: Glycosylation profile (N-linked glycans released, labeled, chromatography) with arginine in culture; type: cell-based, Chinese Hamster
Method: (§1) A transduced CHO cell line was used with three different culture media (Media 1, 2 and 3) in a fed-batch process with 5 different feeds (Feed 1,2,3,4 and 5) and at two culture scales, AMBR system (15 mL culture) and 1 L scale Bioreactors. Feeding strategy was based on maintaining glucose concentration between 3-4 g/L through the addition of different amount of feeding depending on glucose concentration measurement in culture media.
(§2) Process parameters & Conditions AMBR: T: 36.5 °C; Stirrer: 900 rpm; DO: 20%; pH:6.8-7.20; initial density: 0.5x10^6 cells/mL. Process parameters & Conditions 1 L: T: 36.5 °C; Stirrer: 200 rpm/240 rpm (day 7); DO: 20%; pH: 6.8-7.20; initial density: 0.5x10^6 cells/mL.
N-linked glycans were released from IgG samples by overnight incubation with N-glycosidase. The released glycans were labeled with a specific fluorophore. The labeled glycans were bound and separate by a chromatography. N-linked glycan structures were assigned to peaks based on comparison to reference structures. The amount of each structure is expressed as the percentage of total peak area. G0, G1, and G2 refer to complex, neutral, biantennary structures with 0, 1, or 2 terminal galactose residues, while G0F, G1 F, are G2F, are the corresponding core fucosylated structures.
Afucosylation: [GO-GlcNac + G0 + G1 + G2] / [GO-GlcNac + G0 + G0F + G1 + G1 F + G2 + G2F]

[2] = tested on: CHO cell line producing adalimumab; test: Viable cell density (VCD) and viability in fed-batch culture with arginine; type: cell-based, Chinese Hamster
Method: The cells were cultured in AMBR vessels in the cell culture media described above. The vessels were maintained at 36.5 °C, pH 7±0.2, 20% of DO and at 900 rpm of stirrer. They were seeded at 0.5 x 10^6 cells per ml in a volume of 11 mL. On days 0, 3, and 5, at least 2% of initial culture volume of feed medium and 0.2% of initial culture volume of cystine/tyrosine were added. Day 0 is the day in which the cultures were started, day 1 is the first day thereafter, day 2 is the second day thereafter, etc. Protein titer was determined on days 10, 12, 14 and 16.
The cells were cultured in 1 L scale bioreactor in the above described cell culture media. The cultures were maintained at 36.5 °C, pH 7±0.2, 20% of oxygen dissolved (DO) and at 200 rpm of stirrer. They were seeded at 0.5 x 10^6 cells per ml in a volume of 600mL. On days 0, 3, and 5, at least 2% of initial culture volume of feed medium and 0.2% of initial culture volume of cystine/tyrosine were added.
as §1, §2

[3] = Media_1 Feed_2, 2 and 4 g/L arginine, AMBR

For `N=C(N)NCCC[C@H](N)C(=O)O` [Arg, arginine], the “increment in G0 forms” value ([1]; Media_2 Feed_1, 4 g/L arginine, day 16, 1 L bioreactor) was “higher than 50%”, the “increment in G1 forms” value ([1]; Media_3 Feed_3, 4 g/L arginine, day 14, AMBR) was “higher than 50%” and the “increment in G1 forms” value ([1]; Media_3 Feed_4, 4 g/L arginine, day 16, AMBR) was “higher than 50%”. For the same molecule, the “reduction of VCD (maximum)” value [2, 3] was “about 2 million cells”, the viability [2, 3] was “do nott affect viability” and the “cell growth and viability” value ([2]; Media_1 Feed_2, 8 g/L arginine, AMBR) was “important reduction on cell growth affecting viability”. The maximum cell density ([2]; Media_2 Feed_1, 0-4 g/L arginine, AMBR) was “does not reduce the maximum cell density reached”, the maximum cell density ([2]; Media_2 Feed_1, 4 g/L arginine, 1 L bioreactor) was “a delay and a decrease in the obtained maximum cell density” and the “maximum VCD” value ([2]; Media_2 Feed_2, 2 g/L arginine, AMBR) was “does not affect maximum VCD”. The cell growth ([2]; Media_2 Feed_2, 8 g/L arginine, AMBR) was “important reduction on cell growth”, the cell growth ([2]; Media_3 Feed_1, 2 to 4 g/L arginine, AMBR) was “reduces cell growth” and the cell density ([2]; Media_3 Feed_3, 4 g/L arginine in combination with ferric citrate, AMBR) was “does not have a negative effect in cell density”. The cell density ([2]; Media_3 Feed_4, 4 g/L arginine in combination with 1 mM 3-methyl butyrate, AMBR) was “does not have a negative effect in cell density”.

Reference: patent publication EP3339444A1, “METHOD FOR OBTAINING A GL[…] AN INCREASED PERCENTAGE OF AF[…]” (Mabxience Research, S.L., priority 2016, dated 2018)
